Marks after values point to notes of the source that are not given here.
Assays:
Septoria tritici = assay: Test F: wheat leaf blotch, preventive spray on wheat seedlings, visual disease rating; format: in vivo; set-up: Test F rating (disease control), value marked *: concentration or dose not given beside the values; details: for pest or weed control at 200 µg/mL: Zymoseptoria tritici, 100 = 100% disease control, 0 = no disease control relative to the controls
From the text: (§1) A hyphen (-) indicates no test results.

[1] = tested on: Puccinia recondita f. sp. tritici; assay: Test G: wheat leaf rust, spray after inoculation (curative) on wheat seedlings, visual disease rating; format: in vivo; details: sprayed after inoculation, 100 = 100% disease control, 0 = no disease control
From the text: as §1

[2] = tested on: Puccinia recondita f. sp. tritici; assay: Test H: wheat leaf rust, preventive spray on wheat seedlings, visual disease rating; details: read-out: Test H rating (disease control), wheat leaf rust, sprayed the day before inoculation; 100 = 100% disease control, 0 = no disease control
Method: General protocol for preparing test suspensions for Tests A-I: the test compounds were first dissolved in acetone in an amount equal to 3% of the final volume and then suspended at the desired concentration (in ppm) in acetone and purified water (50/50 mix by volume) containing 250 ppm of the surfactant Trem® 014 (polyhydric alcohol esters). The resulting test suspensions were then used in Tests A-I. Each test was conducted in triplicate, and the results were averaged. Spraying a 200 ppm test suspension to the point of run-off on the test plants was the equivalent of a rate of about 800 g/ha. Unless otherwise indicated, the rating values indicate a 200 ppm test suspension was used. (An asterisk “*” next to the rating value indicates a 40 ppm test suspension was used.)
The test suspension was sprayed to the point of run-off on wheat seedlings. The following day the seedlings were inoculated with a spore suspension of Puccinia recondita f. sp. tritici (the causal agent of wheat leaf rust) and incubated in a saturated atmosphere at 20° C. for 24 h, and then moved to a growth chamber at 20° C. for 6 days, after which time visual disease ratings were made.

Botrytis cinerea = assay: Test A: tomato Botrytis, preventive spray on tomato seedlings, visual disease rating; details: Botrytis cinerea, in Solanum lycopersicum, read-out: Test A rating (disease control), tomato Botrytis; 100 = 100% disease control, 0 = no disease control relative to the controls
Alternaria solani = assay: Test B: tomato early blight, preventive spray on tomato seedlings, visual disease rating; details: Alternaria solani, in Solanum lycopersicum, read-out: Test B rating (disease control)
[3] = tested on: Blumeria graminis f. sp. tritici; assay: Test I: wheat powdery mildew, preventive spray on wheat seedlings, visual disease rating; details: Blumeria graminis, in Triticum aestivum, read-out: Test I rating (disease control), wheat powdery mildew; 100 = 100% disease control, 0 = no disease control relative to the controls
Septoria nodorum = assay: Test E: Septoria glume blotch, preventive spray on wheat seedlings, visual disease rating; details: Parastagonospora nodorum, in Triticum aestivum, read-out: Test E rating (disease control), Septoria glume blotch; 100 = 100% disease control, 0 = no disease control relative to the controls

Row | SMILES | pest or weed control at 200 µg/mL (Septoria tritici) | pest or weed control at 200 µg/mL [1] | pest or weed control at 200 µg/mL [2] | pest or weed control at 200 µg/mL (Botrytis cinerea) | pest or weed control at 200 µg/mL (Alternaria solani) | pest or weed control at 200 µg/mL [3] | pest or weed control at 200 µg/mL (Septoria nodorum) | Test F rating (disease control), value marked * (Septoria tritici; rating marked with asterisk (*), other test condition, not explained in the text shown)
1 | COc1cc(F)c(-c2c(C)nn(C)c2Nc2ccc(F)cc2Cl)c(F)c1 [Compound 23, N-(2-chloro-4-fluorophenyl)-4-(2,6-difluoro-4-methoxyphenyl)-1,3-dimethyl-1H-pyrazol-5-amine] | 98% | 85% | 99% | 100% | 100% | 100% | 95% | 
2 | Cc1nn(C)c(Nc2c(F)cc(C#N)cc2F)c1-c1ccc(F)cc1Cl [Compound 25, 4-[[4-(2-chloro-4-fluorophenyl)-1,3-dimethyl-1H-pyrazol-5-yl]amino]-3,5-difluorobenzonitrile] | 99% | 0% | 100% | 100% | 99% | 100% | 95% | 
3 | Cc1nn(C)c(Oc2ccc(C#N)cc2F)c1-c1ccc(F)cc1Cl [Compound 33, 4-[[4-(2-chloro-4-fluorophenyl)-1,3-dimethyl-1H-pyrazol-5-yl]oxy]-3-fluorobenzonitrile] | 100% | 99% | 100% | 100% | 100% | 99% | 98% | 
4 | Cc1nn(C)c(Oc2ccc(C#N)cc2Cl)c1-c1ccc(F)cc1Cl [Compound 37, 3-chloro-4-[[4-(2-chloro-4-fluorophenyl)-1,3-dimethyl-1H-pyrazol-5-yl]oxy]benzonitrile] | 100% | 69% | 99% | 100% | 86% | 100% | 100% | 
5 | Cc1nn(C)c(Nc2c(F)cccc2F)c1-c1ccc(F)cc1Cl [Compound 46, 4-(2-chloro-4-fluorophenyl)-N-(2,6-difluorophenyl)-1,3-dimethyl-1H-pyrazol-5-amine] | 100% | 0% | 99% | 100% | 100% | 100% | 87% | 
6 | Cc1nn(C)c(Nc2ccc(F)cc2Cl)c1-c1c(F)cccc1Cl [Compound 58, N-(2-chloro-4-fluorophenyl)-4-(2-chloro-6-fluorophenyl)-1,3-dimethyl-1H-pyrazol-5-amine] | 100% | 32% | 99% | 99% | 100% | 100% | 0% | 
7 | Cc1nn(C)c(Oc2c(F)cc(C#N)cc2F)c1-c1ccc(F)cc1Br [Compound 65, 4-[[4-(2-bromo-4-fluorophenyl)-1,3-dimethyl-1H-pyrazol-5-yl]oxy]-3,5-difluorobenzonitrile] | 100% | 0% | 100% | 100% | 99% | 100% | 99% | 
8 | Cc1nn(C)c(Nc2ccc(F)cc2Br)c1-c1ccc(F)cc1Cl [Compound 73, N-(2-bromo-4-fluorophenyl)-4-(2-chloro-4-fluorophenyl)-1,3-dimethyl-1H-pyrazol-5-amine] | 100% | 90% | 100% | 100% | 99% | 100% | 78% | 
9 | Cc1nn(C)c(Nc2c(F)cc(F)cc2F)c1-c1ccc(F)cc1Br [Compound 74, 4-(2-bromo-4-fluorophenyl)-1,3-dimethyl-N-(2,4,6-trifluorophenyl)-1H-pyrazol-5-amine] | 100% | 0% | 100% | 100% | 100% | 100% | 98% | 
10 | Cc1nn(C)c(Oc2ccc(C#N)cc2F)c1-c1ccc(F)cc1Br [Compound 79, 4-[[4-(2-bromo-4-fluorophenyl)-1,3-dimethyl-1H-pyrazol-5-yl]oxy]-3-fluorobenzonitrile] |  | 28% | 100% | 99% | 99% | 100% | 100% | 100* %
11 | Cc1nn(C)c(Nc2c(F)cc(F)cc2Cl)c1-c1ccc(F)cc1Br [Compound 84, 4-(2-bromo-4-fluorophenyl)-N-(2-chloro-4,6-difluorophenyl)-1,3-dimethyl-1H-pyrazol-5-amine] | 100% | 92% | 100% | 100% | 99% | 100% | 96% | 
12 | Cc1nn(C)c(Nc2c(F)cc(F)cc2Cl)c1-c1c(F)cccc1F [Compound 86, N-(2-chloro-4,6-difluorophenyl)-4-(2,6-difluorophenyl)-1,3-dimethyl-1H-pyrazol-5-amine] | 100% | 0% | 100% | 100% | 99% | 100% | 90% | 
13 | Cc1nn(C)c(Nc2c(F)cc(Cl)cc2F)c1-c1ccc(C#N)cc1Cl [Compound 111, 3-chloro-4-[5-[(4-chloro-2,6-difluorophenyl)amino]-1,3-dimethyl-1H-pyrazol-4-yl]benzonitrile] | 100% | 94% | 100% | 100% | 97% | 99% | 95% | 
14 | Cc1nn(C)c(Nc2c(F)cc(F)cc2Cl)c1-c1ccc(F)cc1F [Compound 117, N-(2-chloro-4,6-difluorophenyl)-4-(2,4-difluorophenyl)-1,3-dimethyl-1H-pyrazol-5-amine] | 100% | 91% | 100% | 100% | 100% | 100% | 97% | 
15 | Cc1nn(C)c(Nc2ccc(F)cc2Br)c1-c1ccc(F)cc1F [Compound 118, N-(2-bromo-4-fluorophenyl)-4-(2,4-difluorophenyl)-1,3-dimethyl-1H-pyrazol-5-amine] | 100% | 75% | 97% | 100% | 93% | 100% | 69% | 

From patent US20170150719A1, “FUNGICIDAL PYRAZOLES AND THEIR MIXTURES” (E I DU PONT DE NEMOURS AND COMPANY, priority 2010, published 2017)
